{"source": "patent US20240092784A1", "about": "“CONDENSED HETEROCYCLIC COMPOUND” (NISSAN CHEMICAL CORPORATION, priority 2020, published 2024)", "note": "Where a name gives a salt, the structure may show the parent alone."}
{"molecular_target": "human SPR (Homo sapiens (Human), UniProt P35270)", "sequence (P35270 whole entry)": "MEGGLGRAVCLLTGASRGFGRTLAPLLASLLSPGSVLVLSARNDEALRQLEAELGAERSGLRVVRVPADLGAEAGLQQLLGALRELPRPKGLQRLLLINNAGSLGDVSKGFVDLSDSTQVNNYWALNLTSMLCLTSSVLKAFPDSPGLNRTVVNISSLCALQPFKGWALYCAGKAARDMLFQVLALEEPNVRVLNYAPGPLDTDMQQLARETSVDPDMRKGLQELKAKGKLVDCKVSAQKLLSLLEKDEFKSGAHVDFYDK", "assay": "Evaluation Example 2: Measurement of human SPR inhibitory activity (seven concentrations, sepiapterin absorbance at 420 nm)", "assay_type": "biochemical", "conditions": "Evaluation Example 2, seven concentrations 0.14 nM to 100 nM, 240 minutes at room temperature, read-out: IC50", "in_short": "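Reactions ran 240 min at room temperature in 100 mM Tris-HCl pH 7.5 with 0.01% BSA. They contained tag-cleaved, E. coli-expressed full-length human SPR (diluted to 150 ng/mL), seven compound concentrations from 0.14 to 100 nM, and sepiapterin/NADPH added as a 120 μM/160 μM solution. Inhibition was calculated from sepiapterin absorbance at 420 nm.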", "units": {"IC50": "nM"}}
{"molecule": "CC(C)Cn1c(=O)c(C(=O)NC2CC2)c(O)n2ncc(/C=C/C(=O)NC3(C)CCOCC3)c12", "note": "[compound 492, (E)-N-Cyclopropyl-7-hydroxy-4-isobutyl-3-(3-((4-methyltetrahydro-2H-pyran-4-yl)amino)-3-oxoprop-1-en-1-yl)-5-oxo-4,5-dihydropyrazolo[1,5-a]pyrimidine-6-carboxamide]", "IC50": 0.89}
{"molecule": "CC(C)Cn1c(=O)c(C(=O)NC2CC2)c(O)n2ncc(/C=C/C(=O)NC(C)(C)C3CC3)c12", "note": "[compound 493]", "IC50": 0.94}
{"molecule": "CC(C)Cn1c(=O)c(C(=O)NC2CC2)c(O)n2ncc(/C=C/C(=O)N3CCOC[C@H]3C)c12", "note": "[compound 494, (R,E)-N-Cyclopropyl-7-hydroxy-4-isobutyl-3-(3-(3-methylmorpholino)-3-oxoprop-1-en-1-yl)-5-oxo-4,5-dihydropyrazolo[1,5-a]pyrimidine-6-carboxamide]", "IC50": 0.73}
{"molecule": "CC(C)Cn1c(=O)c(C(=O)NC2CC2)c(O)n2ncc(/C=C/C(=O)N3CCC[C@H]3C#N)c12", "note": "[compound 495, (S,E)-3-(3-(2-Cyanopyrrolidin-1-yl)-3-oxoprop-1-en-1-yl)-N-cyclopropyl-7-hydroxy-4-isobutyl-5-oxo-4,5-dihydropyrazolo[1,5-a]pyrimidine-6-carboxamide]", "IC50": 0.91}
{"molecule": "CC(C)Cn1c(=O)c(C(=O)NC2CC2)c(O)n2ncc(/C=C/C(=O)N3CCC[C@@H]3C#N)c12", "note": "[compound 496, (R,E)-3-(3-(2-Cyanopyrrolidin-1-yl)-3-oxoprop-1-en-1-yl)-N-cyclopropyl-7-hydroxy-4-isobutyl-5-oxo-4,5-dihydropyrazolo[1,5-a]pyrimidine-6-carboxamide]", "IC50": 0.75}
{"molecule": "CC(C)Cn1c(=O)c(C(=O)NC2CC2)c(O)n2ncc(/C=C/C(=O)N(C)C3CC3)c12", "note": "[compound 497, (E)-N-Cyclopropyl-3-(3-(cyclopropyl(methyl)amino)-3-oxoprop-1-en-1-yl)-7-hydroxy-4-isobutyl-5-oxo-4,5-dihydropyrazolo[1,5-a]pyrimidine-6-carboxamide]", "IC50": 0.59}
{"molecule": "CC(C)Cn1c(=O)c(C(=O)NC2CC2)c(O)n2ncc(/C=C/C(=O)N(C)CC#N)c12", "note": "[compound 498, (E)-3-(3-((Cyanomethyl)(methyl)amino)-3-oxoprop-1-en-1-yl)-N-cyclopropyl-7-hydroxy-4-isobutyl-5-oxo-4,5-dihydropyrazolo[1,5-a]pyrimidine-6-carboxamide]", "IC50": 0.72}
{"molecule": "CC(C)Cn1c(=O)c(C(=O)NC2CC2)c(O)n2ncc(/C=C/C(=O)N(C)CC3CCOCC3)c12", "note": "[compound 499, (E)-N-Cyclopropyl-7-hydroxy-4-isobutyl-3-(3-(methyl((tetrahydro-2H-pyran-4-yl)methyl)amino)-3-oxoprop-1-en-1-yl)-5-oxo-4,5-dihydropyrazolo[1,5-a]pyrimidine-6-carboxamide]", "IC50": 0.74}
{"molecule": "CC(C)Cn1c(=O)c(C(=O)NC2CC2)c(O)n2ncc(/C=C/C(=O)N3CC[C@H](O)C3)c12", "note": "[compound 501, (S,E)-N-Cyclopropyl-7-hydroxy-3-(3-(3-hydroxypyrrolidin-1-yl)-3-oxoprop-1-en-1-yl)-4-isobutyl-5-oxo-4,5-dihydropyrazolo[1,5-a]pyrimidine-6-carboxamide]", "IC50": 0.71}
{"molecule": "CC(C)Cn1c(=O)c(C(=O)NC2CC2)c(O)n2ncc(/C=C/C(=O)N3CC[C@@H](O)C3)c12", "note": "[compound 502, (R,E)-N-Cyclopropyl-7-hydroxy-3-(3-(3-hydroxypyrrolidin-1-yl)-3-oxoprop-1-en-1-yl)-4-isobutyl-5-oxo-4,5-dihydropyrazolo[1,5-a]pyrimidine-6-carboxamide]", "IC50": 0.7}
{"molecule": "CC(C)Cn1c(=O)c(C(=O)NC2CC2)c(O)n2ncc(/C=C/C(=O)N(C)C(C)C)c12", "note": "[compound 503, (E)-N-Cyclopropyl-7-hydroxy-4-isobutyl-3-(3-(isopropyl(methyl)amino)-3-oxoprop-1-en-1-yl)-5-oxo-4,5-dihydropyrazolo[1,5-a]pyrimidine-6-carboxamide]", "IC50": 0.8}
{"molecule": "CCN(CC)C(=O)/C=C/c1cnn2c(O)c(C(=O)NC3CC3)c(=O)n(CC(C)C)c12", "note": "[compound 504, (E)-N-Cyclopropyl-3-(3-(diethylamino)-3-oxoprop-1-en-1-yl)-7-hydroxy-4-isobutyl-5-oxo-4,5-dihydropyrazolo[1,5-a]pyrimidine-6-carboxamide]", "IC50": 0.84}
{"molecule": "CC(C)Cn1c(=O)c(C(=O)NC2CC2)c(O)n2ncc(/C=C/C(=O)N3CCN(CC(F)(F)C(F)(F)F)CC3)c12", "note": "[compound 505, (E)-N-Cyclopropyl-7-hydroxy-4-isobutyl-5-oxo-3-(3-oxo-3-(4-(2,2,3,3,3-pentafluoropropyl)piperazin-1-yl)prop-1-en-1-yl)-4,5-dihydropyrazolo[1,5-a]pyrimidine-6-carboxamide]", "IC50": 1.89}
{"molecule": "CC(C)Cn1c(=O)c(C(=O)NC2CC2)c(O)n2ncc(/C=C/C(=O)N3CCN(CC(F)(F)F)CC3)c12", "note": "[compound 506, (E)-N-Cyclopropyl-7-hydroxy-4-isobutyl-5-oxo-3-(3-oxo-3-(4-(2,2,2-trifluoroethyl)piperazin-1-yl)prop-1-en-1-yl)-4,5-dihydropyrazolo[1,5-a]pyrimidine-6-carboxamide]", "IC50": 0.8}
{"molecule": "CC(C)Cn1c(=O)c(C(=O)NC2CC2)c(O)n2ncc(/C=C/C(=O)NCC(C)(C)O)c12", "note": "[compound 507, (E)-N-Cyclopropyl-7-hydroxy-3-(3-((2-hydroxy-2-methylpropyl)amino)-3-oxoprop-1-en-1-yl)-4-isobutyl-5-oxo-4,5-dihydropyrazolo[1,5-a]pyrimidine-6-carboxamide]", "IC50": 1.13}
{"molecule": "CC(C)Cn1c(=O)c(C(=O)NC2CC2)c(O)n2ncc(/C=C/C(=O)N3CCNCC3)c12", "note": "[compound 508, (E)-N-Cyclopropyl-7-hydroxy-4-isobutyl-5-oxo-3-(3-oxo-3-(piperazin-1-yl)prop-1-en-1-yl)-4,5-dihydropyrazolo[1,5-a]pyrimidine-6-carboxamide hydrochloride]", "IC50": 0.77}
{"molecule": "CC(C)Cn1c(=O)c(C(=O)NC2CC2)c(O)n2ncc(/C=C/C(=O)N(C)CC(F)(F)F)c12", "note": "[compound 509, (E)-N-Cyclopropyl-7-hydroxy-4-isobutyl-3-(3-(methyl(2,2,2-trifluoroethyl)amino)-3-oxoprop-1-en-1-yl)-5-oxo-4,5-dihydropyrazolo[1,5-a]pyrimidine-6-carboxamide]", "IC50": 0.92}
{"molecule": "CC(C)Cn1c(=O)c(C(=O)NC2CC2)c(O)n2ncc(/C=C/C(=O)N3CCC[C@H]3CO)c12", "note": "[compound 510, (S,E)-N-Cyclopropyl-7-hydroxy-3-(3-(2-(hydroxymethyl)pyrrolidin-1-yl)-3-oxoprop-1-en-1-yl)-4-isobutyl-5-oxo-4,5-dihydropyrazolo[1,5-a]pyrimidine-6-carboxamide]", "IC50": 0.85}
{"molecule": "CC(C)Cn1c(=O)c(C(=O)NC2CC2)c(O)n2ncc(/C=C/C(=O)N3CC4C(C3)C4(F)F)c12", "note": "(stereo not drawn) [compound 511, (E)-N-Cyclopropyl-3-(3-(6,6-difluoro-3-azabicyclo[3.1.0]hexan-3-yl)-3-oxoprop-1-en-1-yl)-7-hydroxy-4-isobutyl-5-oxo-4,5-dihydropyrazolo[1,5-a]pyrimidine-6-carboxamide]", "IC50": 1.07}
{"molecule": "CC(C)Cn1c(=O)c(C(=O)NC2CC2)c(O)n2ncc(/C=C/C(=O)N3CC[C@H](C(N)=O)C3)c12", "note": "[compound 512, (S,E)-3-(3-(3-Carbamoylpyrrolidin-1-yl)-3-oxoprop-1-en-1-yl)-N-cyclopropyl-7-hydroxy-4-isobutyl-5-oxo-4,5-dihydropyrazolo[1,5-a]pyrimidine-6-carboxamide]", "IC50": 0.69}
{"molecule": "CC(C)Cn1c(=O)c(C(=O)NC2CC2)c(O)n2ncc(/C=C/C(=O)N3CC[C@@H](C(N)=O)C3)c12", "note": "[compound 513, (R,E)-3-(3-(3-Carbamoylpyrrolidin-1-yl)-3-oxoprop-1-en-1-yl)-N-cyclopropyl-7-hydroxy-4-isobutyl-5-oxo-4,5-dihydropyrazolo[1,5-a]pyrimidine-6-carboxamide]", "IC50": 0.75}
{"molecule": "CC(C)Cn1c(=O)c(C(=O)NC2CC2)c(O)n2ncc(/C=C/C(=O)N3CCS(=O)(=O)CC3)c12", "note": "[compound 514, (E)-N-Cyclopropyl-3-(3-(1,1-dioxidothiomorpholino)-3-oxoprop-1-en-1-yl)-7-hydroxy-4-isobutyl-5-oxo-4,5-dihydropyrazolo[1,5-a]pyrimidine-6-carboxamide]", "IC50": 0.58}
{"molecule": "CC(C)Cn1c(=O)c(C(=O)NC2CC2)c(O)n2ncc(/C=C/C(=O)N(C3CC3)C3CC3)c12", "note": "[compound 515, (E)-N-Cyclopropyl-3-(3-(dicyclopropylamino)-3-oxoprop-1-en-1-yl)-7-hydroxy-4-isobutyl-5-oxo-4,5-dihydropyrazolo[1,5-a]pyrimidine-6-carboxamide]", "IC50": 0.84}
{"molecule": "CC(C)Cn1c(=O)c(C(=O)NC2CC2)c(O)n2ncc(/C=C/C(=O)N3CCC(=O)C3)c12", "note": "[compound 516, (E)-N-Cyclopropyl-7-hydroxy-4-isobutyl-5-oxo-3-(3-oxo-3-(3-oxopyrrolidin-1-yl)prop-1-en-1-yl)-4,5-dihydropyrazolo[1,5-a]pyrimidine-6-carboxamide]", "IC50": 0.61}
{"molecule": "COCCNC(=O)/C=C/c1cnn2c(O)c(C(=O)NC3CC3)c(=O)n(CC(C)C)c12", "note": "[compound 517, (E)-N-Cyclopropyl-7-hydroxy-4-isobutyl-3-(3-((2-methoxyethyl)amino)-3-oxoprop-1-en-1-yl)-5-oxo-4,5-dihydropyrazolo[1,5-a]pyrimidine-6-carboxamide]", "IC50": 0.57}
{"molecule": "CC(C)Cn1c(=O)c(C(=O)NC2CC2)c(O)n2ncc(/C=C/C(=O)N(C)CC(C)(C)O)c12", "note": "[compound 518, (E)-N-Cyclopropyl-7-hydroxy-3-(3-((2-hydroxy-2-methylpropyl)(methyl)amino)-3-oxoprop-1-en-1-yl)-4-isobutyl-5-oxo-4,5-dihydropyrazolo[1,5-a]pyrimidine-6-carboxamide]", "IC50": 0.66}
{"molecule": "COCCN(C)C(=O)/C=C/c1cnn2c(O)c(C(=O)NC3CC3)c(=O)n(CC(C)C)c12", "note": "[compound 519, (E)-N-Cyclopropyl-7-hydroxy-4-isobutyl-3-(3-((2-methoxyethyl)(methyl)amino)-3-oxoprop-1-en-1-yl)-5-oxo-4,5-dihydropyrazolo[1,5-a]pyrimidine-6-carboxamide]", "IC50": 0.68}
